Our source for the IC50 values is patent publication US8501770B2 (ArQule, Inc., priority 2009, dated 2013).

Full-length inactive AKT1, sequence (P31749 whole entry): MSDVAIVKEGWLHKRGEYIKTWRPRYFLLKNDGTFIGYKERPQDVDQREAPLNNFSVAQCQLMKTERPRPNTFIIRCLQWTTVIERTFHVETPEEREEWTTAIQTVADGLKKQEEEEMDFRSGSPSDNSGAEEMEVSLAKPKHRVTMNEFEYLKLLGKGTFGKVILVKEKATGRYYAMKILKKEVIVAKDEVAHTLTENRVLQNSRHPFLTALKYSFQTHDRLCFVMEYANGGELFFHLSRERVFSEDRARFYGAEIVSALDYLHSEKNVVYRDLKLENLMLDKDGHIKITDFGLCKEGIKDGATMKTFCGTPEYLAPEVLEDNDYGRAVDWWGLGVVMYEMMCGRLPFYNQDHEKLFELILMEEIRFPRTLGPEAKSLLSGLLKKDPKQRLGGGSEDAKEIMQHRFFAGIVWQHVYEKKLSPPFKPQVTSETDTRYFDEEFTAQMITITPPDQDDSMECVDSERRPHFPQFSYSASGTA

One assay addresses Full-length inactive AKT1 (Homo sapiens, UniProt P31749). The experiment in a line: Inactive Akt Alpha Screen Assay. As to conditions: AlphaScreen assay (values not marked with *); read-out: Akt1 IC50, (AlphaScreen) (μM) (or if marked with “*” HTRF assay). Format: biochemical. An outline of the steps:
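AlphaScreen read-out (excitation 640 nm, emission 570 nm) after 90 min incubation at room temperature in the dark. Signal comes from crosstide phosphorylation by AKT1, which was activated by added PDK1, MAPKAPK2, ATP and lipid vesicles, captured via phospho-AKT substrate antibody and streptavidin beads.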
With `CNC(=O)c1cc(F)cc(-c2ccc3nc(-c4cccnc4N)n(-c4ccc(C5(N)CCC5)cc4)c3n2)c1` [Example 432, 3-{3-[4-(1-aminocyclobutyl)phenyl]-2-(2-aminopyridin-3-yl)-3H-imidazo[4,5-b]pyridin-5-yl}-5-fluoro-N-methylbenzamide], the 50% inhibitory concentration (IC50) is 0.0064 µM.
Take `CN1CCOc2cc(-c3ccc4nc(-c5cccnc5N)n(-c5ccc(C6(N)CCC6)cc5)c4n3)ccc21` [Example 433, 3-{3-[4-(1-aminocyclobutyl)phenyl]-5-(4-methyl-3,4-dihydro-2H-1,4-benzoxazin-7-yl)-3H-imidazo[4,5-b]pyridin-2-yl}pyridin-2-amine]: the IC50 came out at 0.0018 µM.
For `Nc1ncccc1-c1nc2ccc(-c3ccc(O)c(F)c3)nc2n1-c1ccc(C2(N)CCC2)cc1` [Example 434, 4-{3-[4-(1-aminocyclobutyl)phenyl]-2-(2-aminopyridin-3-yl)-3H-imidazo[4,5-b]pyridin-5-yl}-2-fluorophenol], the IC50 was determined as 0.005 µM.
Still for that read-out and setting: the result for `Nc1ncccc1-c1nc2ccc(-c3cc(O)cc(F)c3)nc2n1-c1ccc(C2(N)CCC2)cc1` [Example 435, 3-{3-[4-(1-aminocyclobutyl)phenyl]-2-(2-aminopyridin-3-yl)-3H-imidazo[4,5-b]pyridin-5-yl}-5-fluorophenol] reads 0.01 µM.
The same measure, in the same setting: the result for `Nc1ncccc1-c1nc2ccc(-c3ccc(F)c(O)c3)nc2n1-c1ccc(C2(N)CCC2)cc1` [Example 436, 5-{3-[4-(1-aminocyclobutyl)phenyl]-2-(2-aminopyridin-3-yl)-3H-imidazo[4,5-b]pyridin-5-yl}-2-fluorophenol] reads 0.0078 µM; that for `Nc1ncccc1-c1nc2ccc(-c3cc(O)ccc3F)nc2n1-c1ccc(C2(N)CCC2)cc1` [Example 437, 3-{3-[4-(1-aminocyclobutyl)phenyl]-2-(2-aminopyridin-3-yl)-3H-imidazo[4,5-b]pyridin-5-yl}-4-fluorophenol], 0.014 µM; that for `CN1C(=O)COc2ccc(-c3ccc4nc(-c5cccnc5N)n(-c5ccc(C6(N)CCC6)cc5)c4n3)cc21` [Example 438, 6-{3-[4-(1-aminocyclobutyl)phenyl]-2-(2-aminopyridin-3-yl)-3H-imidazo[4,5-b]pyridin-5-yl}-4-methyl-2H-1,4-benzoxazin-3(4H)-one], 0.0079 µM.
The same measure, in the same setting: next, `Nc1ncccc1-c1nc2ccc(-c3ccnc(N4CCOCC4)c3)nc2n1-c1ccc(C2(N)CCC2)cc1` [Example 439, 3-{3-[4-(1-aminocyclobutyl)phenyl]-5-(2-morpholin-4-ylpyridin-4-yl)-3H-imidazo[4,5-b]pyridin-2-yl}pyridin-2-amine]: 0.0026 µM; `CNC(=O)c1cc(-c2ccc3nc(-c4cccnc4N)n(-c4ccc(C5(N)CCC5)cc4)c3n2)ccc1F` [Example 440, 5-{3-[4-(1-aminocyclobutyl)phenyl]-2-(2-aminopyridin-3-yl)-3H-imidazo[4,5-b]pyridin-5-yl}-2-fluoro-N-methylbenzamide]: 0.0054 µM; `CCNC(=O)c1cccc(-c2ccc3nc(-c4cccnc4N)n(-c4ccc(C5(N)CCC5)cc4)c3n2)c1` [Example 441, 3-{3-[4-(1-aminocyclobutyl)phenyl]-2-(2-aminopyridin-3-yl)-3H-imidazo[4,5-b]pyridin-5-yl}-N-ethylbenzamide]: 0.0066 µM.
`Nc1ncccc1-c1nc2ccc(-c3cccc4[nH]ncc34)nc2n1-c1ccc(C2(N)CCC2)cc1` [Example 442, 3-{3-[4-(1-aminocyclobutyl)phenyl]-5-(1H-indazol-4-yl)-3H-imidazo[4,5-b]pyridin-2-yl}pyridin-2-amine]: the half-maximal inhibitory concentration (IC50) came to 0.0049 µM.
Same read-out and setting: next, `Cc1ccc(-c2ccc3nc(-c4cccnc4N)n(-c4ccc(C5(N)CCC5)cc4)c3n2)cc1O` [Example 443, 5-{3-[4-(1-aminocyclobutyl)phenyl]-2-(2-aminopyridin-3-yl)-3H-imidazo[4,5-b]pyridin-5-yl}-2-methylphenol]: 0.012 µM.
On the same count and under the same terms, the result for `COc1cccc(-c2ccc3nc(-c4cccnc4N)n(-c4ccc(C5(N)CCC5)cc4)c3n2)c1C#N` [Example 444, 2-{3-[4-(1-aminocyclobutyl)phenyl]-2-(2-aminopyridin-3-yl)-3H-imidazo[4,5-b]pyridin-5-yl}-6-methoxybenzonitrile] reads 0.0068 µM; that for `Nc1ncccc1-c1nc2ccc(-c3cccc(O)c3F)nc2n1-c1ccc(C2(N)CCC2)cc1` [Example 445, 3-{3-[4-(1-aminocyclobutyl)phenyl]-2-(2-aminopyridin-3-yl)-3H-imidazo[4,5-b]pyridin-5-yl}-2-fluorophenol], 0.014 µM.
On the same count and under the same terms, the result for `Nc1ncccc1-c1nc2ccc(-c3c[nH]c4ccncc34)nc2n1-c1ccc(C2(N)CCC2)cc1` [Example 446, 3-{3-[4-(1-aminocyclobutyl)phenyl]-5-(1H-pyrrolo[3,2-c]pyridin-3-yl)-3H-imidazo[4,5-b]pyridin-2-yl}pyridin-2-amine] reads 0.0089 µM.
As for `Nc1ncccc1-c1nc2ccc(-c3ccc(O)nc3)nc2n1-c1ccc(C2(N)CCC2)cc1` [Example 447, 5-{3-[4-(1-aminocyclobutyl)phenyl]-2-(2-aminopyridin-3-yl)-3H-imidazo[4,5-b]pyridin-5-yl}pyridin-2-ol], the IC50 was found to be 0.045 µM.

Staying with this assay, now noted: values not marked with "*"; read-out: Akt1 IC50, (AlphaScreen).
On to `COc1cc(-c2ccc3nc(-c4cccnc4N)n(-c4ccc(C5(N)CCC5)cc4)c3n2)ccc1N` [Example 417, 3-{3-[4-(1-aminocyclobutyl)phenyl]-5-(4-amino-3-methoxyphenyl)-3H-imidazo[4,5-b]pyridin-2-yl}pyridin-2-amine], for which the IC50 is 0.002 µM.
On to `Nc1ncccc1-c1nc2ccc(-c3cc[nH]n3)nc2n1-c1ccc(C2(N)CCC2)cc1` [Example 418, 3-{3-[4-(1-aminocyclobutyl)phenyl]-5-(1H-pyrazol-3-yl)-3H-imidazo[4,5-b]pyridin-2-yl}pyridin-2-amine], for which the IC50 stood at 0.0082 µM.
Same read-out and setting: next, `COc1cc(-c2ccc3nc(-c4cccnc4N)n(-c4ccc(C5(N)CCC5)cc4)c3n2)ccc1O` [Example 419, 4-{3-[4-(1-aminocyclobutyl)phenyl]-2-(2-aminopyridin-3-yl)-3H-imidazo[4,5-b]pyridin-5-yl}-2-methoxyphenol]: 0.0027 µM.
In the case of `COc1cc(F)cc(-c2ccc3nc(-c4cccnc4N)n(-c4ccc(C5(N)CCC5)cc4)c3n2)c1` [Example 420, 3-{3-[4-(1-aminocyclobutyl)phenyl]-5-(3-fluoro-5-methoxyphenyl)-3H-imidazo[4,5-b]pyridin-2-yl}pyridin-2-amine], the IC50 amounted to 0.0054 µM.
Same read-out and setting: the result for `COc1cccc(-c2ccc3nc(-c4cccnc4N)n(-c4ccc(C5(N)CCC5)cc4)c3n2)c1F` [Example 421, 3-{3-[4-(1-aminocyclobutyl)phenyl]-5-(2-fluoro-3-methoxyphenyl)-3H-imidazo[4,5-b]pyridin-2-yl}pyridin-2-amine] reads 0.017 µM; that for `CCCOc1cccc(-c2ccc3nc(-c4cccnc4N)n(-c4ccc(C5(N)CCC5)cc4)c3n2)c1` [Example 422, 3-{3-[4-(1-aminocyclobutyl)phenyl]-5-(3-propoxyphenyl)-3H-imidazo[4,5-b]pyridin-2-yl}pyridin-2-amine], 0.011 µM.
As for `Nc1ncccc1-c1nc2ccc(-c3cc4ccccc4o3)nc2n1-c1ccc(C2(N)CCC2)cc1` [Example 423, 3-{3-[4-(1-aminocyclobutyl)phenyl]-5-(1-benzofuran-2-yl)-3H-imidazo[4,5-b]pyridin-2-yl}pyridin-2-amine], the 50% inhibitory concentration (IC50) is 0.0066 µM.
On to `Nc1ncccc1-c1nc2ccc(-c3ccc(O)cc3)nc2n1-c1ccc(C2(N)CCC2)cc1` [Example 424, 4-{3-[4-(1-aminocyclobutyl)phenyl]-2-(2-aminopyridin-3-yl)-3H-imidazo[4,5-b]pyridin-5-yl}phenol], for which the IC50 is 0.0093 µM.
Still for that read-out and setting: the result for `Nc1ncccc1-c1nc2ccc(-c3nccs3)nc2n1-c1ccc(C2(N)CCC2)cc1` [Example 425, 3-{3-[4-(1-aminocyclobutyl)phenyl]-5-(1,3-thiazol-2-yl)-3H-imidazo[4,5-b]pyridin-2-yl}pyridin-2-amine] reads 0.01 µM; that for `Nc1ncccc1-c1nc2ccc(-c3cccc(OC(F)(F)F)c3)nc2n1-c1ccc(C2(N)CCC2)cc1` [Example 426, 3-{3-[4-(1-aminocyclobutyl)phenyl]-5-[3-(trifluoromethoxy)phenyl]-3H-imidazo[4,5-b]pyridin-2-yl}pyridin-2-amine], 0.005 µM; that for `Nc1ncccc1-c1nc2ccc(-c3ccsc3)nc2n1-c1ccc(C2(N)CCC2)cc1` [Example 427, 3-{3-[4-(1-aminocyclobutyl)phenyl]-5-(3-thienyl)-3H-imidazo[4,5-b]pyridin-2-yl}pyridin-2-amine], 0.01 µM.
Still for that read-out and setting: the result for `COc1cc(-c2ccc3nc(-c4cccnc4N)n(-c4ccc(C5(N)CCC5)cc4)c3n2)ccc1F` [Example 428, 3-{3-[4-(1-aminocyclobutyl)phenyl]-5-(4-fluoro-3-methoxyphenyl)-3H-imidazo[4,5-b]pyridin-2-yl}pyridin-2-amine] reads 0.0058 µM; that for `COc1ccc(-c2ccc3nc(-c4cccnc4N)n(-c4ccc(C5(N)CCC5)cc4)c3n2)cc1O` [Example 429, 5-{3-[4-(1-aminocyclobutyl)phenyl]-2-(2-aminopyridin-3-yl)-3H-imidazo[4,5-b]pyridin-5-yl}-2-methoxyphenol], 0.0095 µM; that for `COc1cccc(-c2ccc3nc(-c4cccnc4N)n(-c4ccc(C5(N)CCC5)cc4)c3n2)c1O` [Example 430, 2-{3-[4-(1-aminocyclobutyl)phenyl]-2-(2-aminopyridin-3-yl)-3H-imidazo[4,5-b]pyridin-5-yl}-6-methoxyphenol], 0.0038 µM.
Still for that read-out and setting: next, `Nc1ncccc1-c1nc2ccc(-c3cccc(N4CCCCC4)c3)nc2n1-c1ccc(C2(N)CCC2)cc1` [Example 431, 3-{3-[4-(1-aminocyclobutyl)phenyl]-5-(3-piperidin-1-ylphenyl)-3H-imidazo[4,5-b]pyridin-2-yl}pyridin-2-amine]: 0.018 µM.
